For test [1], the target named is T1, Aβ42 (amyloid beta 42) fibrils (Homo sapiens, UniProt P05067).
T1 construct: gene APP; Aβ42 fibrils
Description: fluorescence titration of […] probe with fibrils. It is filed as binding.

In test [2] the target is T2, Aβ40 (amyloid beta 40) fibrils (Homo sapiens, UniProt P05067).
T2 construct: gene APP; Aβ40 fibrils
The experiment in a line: fluorescence titration of […] probe with fibrils. It counts as binding.

As usually defined, the Kd is the constant that tells how readily two partners part at equilibrium. Low values mean tighter binding, high ones weaker binding.

T2 sequence (P05067 672-711 limits assumed): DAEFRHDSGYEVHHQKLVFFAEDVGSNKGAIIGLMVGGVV
T1 sequence (P05067 672-713 limits assumed): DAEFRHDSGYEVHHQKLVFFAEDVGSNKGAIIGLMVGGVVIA

Take `CN(C)c1ccc(-c2ccc3cc(-c4nc5ccccc5s4)c(=N)oc3c2)cc1` [ICTAD-1]: the Kd in test [1] is 3.78 µM; in test [2], 6.27 µM.

Values taken from article PMC8159352, “Differentiating Aβ40 and Aβ42 in amyloid plaques with a small molecule fluorescence probe” (Chemical Science, 2020).
